For ten compounds, EC50 results are on record in PubChem BioAssay AID434940 (The Scripps Research Institute Molecular Screening Center, 2010).

pEC50: −log10 of the molar value. Active and inactive are the calls of the source.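 How the source made its calls: active means STAT3 activation with EC50 of 10 µM or lower; inactive means EC50 above 10 µM or none.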

For the test, the system named is U3A STAT3-luciferase reporter, IL-6 stimulated, luminescence. As to the kind of experiment: enhancement of STAT3 luciferase transcription – U3A cells, luminescence, dose response, powder samples, counter-screen for STAT1 activator project, late-stage follow-up (AID 434940).
Regarding `Cc1nnc(SCC(=O)Nc2ccc(-c3nc4ccccc4s3)cc2)s1`, the EC50 was > 55.7 µM (inactive).
With `COc1ccc(-c2csc(N3C(=O)CNC3=S)n2)cc1`, the EC50 is > 55.7 µM (inactive).
The same measure, in the same setting: next, `O=C(/C=C/Nc1ccccc1F)c1ccc(Br)cc1`: > 55.7 µM (inactive).
The same measure, in the same setting: next, `COc1ccc(-c2cc(C)nc3c(-c4ccccc4)cnn23)cc1`: > 55.7 µM (inactive).
For the compound `CCN(CC)c1ccc2cc(C(=O)Nc3ccccn3)c(=O)oc2c1`, the pEC50 is 6.09.
For `O=C(Nc1nc2ccccc2s1)c1cc2ccccc2s1`, the EC50 is > 55.7 µM (inactive).
On the same count and under the same terms, then `Cc1ccc(C(=O)Nc2nc3ccccc3s2)s1`, with > 55.7 µM (inactive); and `CC(=O)NC(=S)Nc1sc2c(c1C#N)CCCCC2`, with > 55.7 µM (inactive).
Same read-out and setting: next, `COc1ccc2[nH]c3c(c2c1)CCn1c-3nc2ccccc2c1=O`: > 18.6 µM (inactive); `Cc1cc(-c2ccncc2)n2ncc(-c3ccccc3)c2n1`: > 55.7 µM (inactive).

In general, EC50 refers to the midpoint of the concentration-response curve. As usually defined, the pEC50 is the EC50 on a negative log10 scale, so that one unit is a factor of ten.
